Laboratory results reported in patent publication US8457712B2, “Multi-mode medical device system and methods of manufacturing and using same” (Wisconsin Alumni Research Foundation, priority 2005, dated 2013).

Test: Diffusion of a fluorescent probe in swollen gelatin gel by FRAP
Assay type: physicochemical
From the text: To assess the stability of DTPA[Gd(III)] in the gelatin coating, the diffusion of a fluorescence probe in gelatin was studied by the technique of fluorescence recovery after photobleaching (FRAP). The instrument and data analysis scheme are described in Kim, S. H. and Yu, H., J. Phys. Chem. 1992, 96, 4034, which is hereby fully incorporated by reference. Fluorescein was used as the fluorescence probe due, in part, to its molecular size being roughly the same as that of DTPA[Gd(III)]. The focus of the study was to examine the possible retardation effects of gelatin concentration and cross-link density on the diffusion, which was determined at room temperature, i.e., below the gel point of gelatin. The diffusion of fluorescein probe slows down with the increase of gelatin concentration. The diffusion coefficient decreases from 1.5×10-10 to 9×10-12 […]-1 when the concentration of gelatin increases from 9% to 40%. […] Accordingly, the probe diffusion is more likely controlled by the concentration of gelatin rather than the cross-link density. On the other hand, the cross-link density may determine the swelling ratio of gelatin, i.e., the concentration of gelatin in aqueous solution. […]

| time to diffuse out of the gelatin coating (estimated for coating thickness 60 μm and diffusion coefficient 9×10-12 m2s-1) | fluorescence signal remaining in gelatin films (after soaking in water for 18 hours, including films not cross-linked) | SMILES |
| --- | --- | --- |
| about 67 seconds | – | O=C(O)CN(CCN(CC(=O)O)CC(=O)O)CCN(CC(=O)O)CC(=O)O [DTPA, diethylenetriaminepentaacetic acid] |
| – | still fluorescence signal | O=C1OC2(c3ccc(O)cc3Oc3cc(O)ccc32)c2ccccc21 [fluorescein] |
